Experimental data published in patent US5252495A, “Immunoassay for physostigmine” (priority 1992, dated 1993).
Where two headings read alike, the source gives them in different places.

Assays:
[1] = Stability of physostigmine in rat plasma; format: in vitro ADME; conditions: for Amount Recovered: rat plasma
Experimental: To show the stability of physostigmine in biological fluids, physostigmine was added to 2 portions of rat plasma. One half of the plasma was kept at room temperature and the other was kept at 4° C. Aliquots which originally contained 3.6 ng of physostigmine were assayed at various times. […] Since the samples were cooled and processed at 4° C., corrections for loss of physostigmine were unnecessary.

[2] = Physostigmine pharmacokinetics and tissue concentrations in rats after intramuscular administration; format: in vivo, Male Sprague-Dawley rats; conditions: 0.3 mg/kg intramuscular; for concentration at 0.5 h: 30 min; for concentration at 0.75 h: 45 min; for concentration at 1 h: 60 min; for concentration at 1.5 h: 90 min; for concentration at 2 h: 120 min
Experimental: To study the pharmakinetics of physostigmine and validate the RIA and the antibody specificity of the present invention, rat studies were conducted. Male Sprague-Dawley rats weighing approximately 500 grams were housed two per cage at 23° C. with a twelve hour on-off light cycle. The animals were given food and water ad libitum. After sixty days, food was withheld for twelve hours. Physostigmine, comprised of a physostigmine base dissolved in a small volume of dilute hydrochloric acid and then diluted with phosphate buffered saline, with the pH of the solution adjusted to 6.0 was administered (0.3 mg. of the physostigmine solution/Kg) intramuscularly to the rats. Groups of three animals were sacrificed by using inhalation anesthetic, Fluothane (0.01% thymol, w/w; and 0.00025% ammonia, w/w) Ayerst Laboratories, New York, […] Blood, collected via heart puncture, and tissue samples were taken. Brain, fat, heart, muscle and spleen were removed and frozen on dry ice immediately. On the date of analysis the plasma and tissue samples were thawed. The tissues were weighed and homogenized with an equal volume of cold solution of 10 mM EDTA, 150 mM NaCl and 0.5% triton X-100, pH 7.4. The suspension Was centrifuged at 15,000×g in a Sorvall RC-5B centrifuge (Dupont) for 30 min at 4° C. The supernatent was collected and the pellet was Washed and centrifuged. The supernatants were combined and filtered through 1 um pore size filters (RC 60, 9 mm diameter from Schleicher and Schuell Inc., Keene, N.H.) and 100 ul of the filtrate was injected into the HPLC column.
The blood and tissue samples were used to determine the concentration of physostigmine as a function of time. FIG. 3 gives the physostigmine level in the plasma of three male rats for each time interval as determined by the RIA of the present invention, while Table 4 presents the concentration of physostigmine in various organs as a function of time.

[3] = rat, brain, im, read-out: Tissue concentration of physostigmine, Brain
[4] = rat, fat, im, read-out: Tissue concentration of physostigmine, Fat
[5] = rat, heart, im, read-out: Tissue concentration of physostigmine, Heart
[6] = rat, muscle, im, read-out: Tissue concentration of physostigmine, Muscle
[7] = rat, spleen, im, read-out: Tissue concentration of physostigmine, Spleen

## CNC(=O)Oc1ccc2c(c1)[C@]1(C)CCN(C)[C@@H]1N2C [Physostigmine, physostigmine]
[1]; 4° C., 0 min, originally 3.6 ng
  Amount Recovered: 3.6 ng
[1]; 4° C., 15 min
  Amount Recovered: 3.4 ng
[1]; 4° C., 30 min
  Amount Recovered: 3.6 ng
[1]; 4° C., 1 hr
  Amount Recovered: 3.8 ng
[1]; 4° C., 2 hr
  Amount Recovered: 3.6 ng
[1]; 4° C., 3 hr
  Amount Recovered: 3.6 ng
[1]; 4° C., 4 hr
  Amount Recovered: 3.6 ng
[1]; 23° C., 0 min, originally 3.6 ng
  Amount Recovered: 3.6 ng
[1]; 23° C., 15 min
  Amount Recovered: 3.3 ng
[1]; 23° C., 30 min
  Amount Recovered: 3.1 ng
[1]; 23° C., 1 hr
  Amount Recovered: 2.7 ng
[1]; 23° C., 2 hr
  Amount Recovered: 2.8 ng
[1]; 23° C., 3 hr
  Amount Recovered: 2.8 ng
[1]; 23° C., 4 hr
  Amount Recovered: 2.8 ng
[1]; rat, plasma, kept at 4° C. for 3 hr, read-out: physostigmine recovered from plasma samples
  remaining at 3 h: > 95%
[1]; rat, plasma, processed within 15 min. at room temperature, read-out: physostigmine recovered from plasma samples
  remaining at 0.25 h: > 95%
[2]; 180 min
  Tissue concentration of physostigmine, Brain: 0.00 ng/g
[2]; im, rat, spleen, read-out: time during which spleen levels continued to increase (converted)
  Tmax: 20 min
[2]; rat
  estimated plasma half-life during the rapid decline phase: approximately 15 min
  time until present in all of the tissues studied: ≤ 2.5 min
  tissue distribution: rapidly distributed to central as well as peripheral tissues
  tissues with highest tissue concentrations: heart and spleen
[2]; [3]
  concentration at 2.5 min: 331 ng/g
  concentration at 5 min: 297 ng/g
  concentration at 10 min: 292 ng/g
  concentration at 20 min: 198 ng/g
  concentration at 0.5 h: 173 ng/g
  concentration at 0.75 h: 45.6 ng/g
  concentration at 1 h: 15.7 ng/g
  concentration at 1.5 h: 3.05 ng/g
  concentration at 2 h: 0.53 ng/g
[2]; [4]
  concentration at 2.5 min: 230 ng/g
  concentration at 5 min: 533 ng/g
  concentration at 10 min: 398 ng/g
  concentration at 20 min: 360 ng/g
  concentration at 0.5 h: 292 ng/g
  concentration at 0.75 h: 95 ng/g
  concentration at 1 h: 86.3 ng/g
  concentration at 1.5 h: 80.5 ng/g
  concentration at 2 h: 58.6 ng/g
[2]; rat, fat, im, 180 min, read-out: Tissue concentration of physostigmine, Fat
  concentration at 3 h: 10.3 ng/g
[2]; [5]
  concentration at 2.5 min: 332 ng/g
  concentration at 5 min: 785 ng/g
  concentration at 20 min: 371 ng/g
  concentration at 0.5 h: 213 ng/g
  concentration at 0.75 h: 79.2 ng/g
  concentration at 1 h: 78.5 ng/g
  concentration at 1.5 h: 66.9 ng/g
  concentration at 2 h: 47.2 ng/g
[2]; rat, heart, im, 180 min, read-out: Tissue concentration of physostigmine, Heart
  concentration at 3 h: 48.7 ng/g
[2]; [6]
  concentration at 2.5 min: 321 ng/g
  concentration at 5 min: 225 ng/g
  concentration at 10 min: 540 ng/g
  concentration at 20 min: 323 ng/g
  concentration at 0.5 h: 243 ng/g
  concentration at 0.75 h: 241 ng/g
  concentration at 1 h: 86 ng/g
  concentration at 1.5 h: 70 ng/g
  concentration at 2 h: 35 ng/g
[2]; rat, muscle, im, 180 min, read-out: Tissue concentration of physostigmine, Muscle
  concentration at 3 h: 37.5 ng/g
[2]; [7]
  concentration at 2.5 min: 322 ng/g
  concentration at 5 min: 627 ng/g
  concentration at 10 min: 955 ng/g
  concentration at 20 min: 986 ng/g
  concentration at 0.5 h: 912 ng/g
  concentration at 0.75 h: 835 ng/g
  concentration at 1 h: 540 ng/g
  concentration at 1.5 h: 358 ng/g
  concentration at 2 h: 227 ng/g
[2]; rat, spleen, im, 180 min, read-out: Tissue concentration of physostigmine, Spleen
  concentration at 3 h: 55.6 ng/g
